The structures appear in SMILES notation. Where “and” joins values, the source holds several entries; their conditions need not be identical. Identical values can stand only once. Toxic doses and inconclusive results are not listed.

In the test the test system is P388 leukemia ip, CD2F1 mice, survival T/C. The experiment in a line: NCI In Vivo Anticancer Drug Screen. Data for tumor model P388 Leukemia (intraperitoneal) in CD2F1 (CDF1) mice. The conditions noted are these: endpoint: median survival time, higher = longer survival. Summed up:
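Mice carrying the transplanted tumor received test compound or vehicle. Survival was recorded in each group, and the value is the treated-group measurement divided by that of the vehicle-treated control group.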

[1] abbreviates: dose: 60.0 mg/kg/injection, schedule: Q01DX005 (ip), vehicle: saline with Tween-80.
Where [2] appears, read: dose: 120.0 mg/kg/injection, schedule: Q01DX005 (ip), vehicle: saline with Tween-80.
Where [3] appears, read: dose: 240.0 mg/kg/injection, schedule: Q01DX005 (ip), vehicle: saline with Tween-80.
Setting [4] is: dose: 100.0 mg/kg/injection, schedule: Q04DX003 (ip), vehicle: saline with Tween-80.
Setting [5] is: dose: 50.0 mg/kg/injection, schedule: Q01DX005 (ip), vehicle: Klucel (hydroxypropylcellulose) (HPC).
Where [6] appears, read: dose: 100.0 mg/kg/injection, schedule: Q01DX005 (ip), vehicle: Klucel (hydroxypropylcellulose) (HPC).
The mark [7] stands for this setting: dose: 200.0 mg/kg/injection, schedule: Q01DX005 (ip), vehicle: Klucel (hydroxypropylcellulose) (HPC).
Where [8] appears, read: dose: 12.5 mg/kg/injection, schedule: Q01DX009 (ip), vehicle: saline with Tween-80.
The mark [9] stands for this setting: dose: 25.0 mg/kg/injection, schedule: Q01DX009 (ip), vehicle: saline with Tween-80.
Where [10] appears, read: dose: 50.0 mg/kg/injection, schedule: Q01DX009 (ip), vehicle: saline with Tween-80.
Setting [11] is: dose: 100.0 mg/kg/injection, schedule: Q01DX009 (ip), vehicle: saline with Tween-80.
[12] abbreviates: dose: 50.0 mg/kg/injection, schedule: Q01DX005 (ip), vehicle: saline with Tween-80.
The mark [13] stands for this setting: dose: 100.0 mg/kg/injection, schedule: Q01DX005 (ip), vehicle: saline with Tween-80.
Setting [14] is: dose: 60.0 mg/kg/injection, schedule: Q01DX005 (ip), vehicle: saline.
Setting [15] is: dose: 120.0 mg/kg/injection, schedule: Q01DX005 (ip), vehicle: saline.
Setting [16] is: dose: 240.0 mg/kg/injection, schedule: Q01DX005 (ip), vehicle: saline.
[17] abbreviates: dose: 200.0 mg/kg/injection, schedule: Q01DX005 (ip), vehicle: saline with Tween-80.
The mark [18] stands for this setting: dose: 200.0 mg/kg/injection, schedule: Q04DX003 (ip), vehicle: saline with Tween-80.
The mark [19] stands for this setting: dose: 400.0 mg/kg/injection, schedule: Q04DX003 (ip), vehicle: saline with Tween-80.
[20] abbreviates: dose: 50.0 mg/kg/injection, schedule: Q01DX009 (ip), vehicle: Klucel (hydroxypropylcellulose) (HPC).
[21] abbreviates: dose: 100.0 mg/kg/injection, schedule: Q01DX009 (ip), vehicle: Klucel (hydroxypropylcellulose) (HPC).
[22] abbreviates: dose: 200.0 mg/kg/injection, schedule: Q01DX009 (ip), vehicle: Klucel (hydroxypropylcellulose) (HPC).
[23] abbreviates: dose: 100.0 mg/kg/injection, schedule: Q01DX001 (ip), vehicle: saline with Tween-80.
Setting [24] is: dose: 200.0 mg/kg/injection, schedule: Q01DX001 (ip), vehicle: saline with Tween-80.
[25] abbreviates: dose: 400.0 mg/kg/injection, schedule: Q01DX001 (ip), vehicle: saline with Tween-80.

On to `COC(=O)c1nc(N)nc(C(=O)OC)c1C(=O)c1ccc(N2CCN(c3ccc(C(=O)c4c(C(=O)OC)nc(N)nc4C(=O)OC)cc3)CC2)cc1`, for which the T/C is 98 % of control under setting [1], 97 % of control under setting [2] and 91 % of control under setting [3].
As for `N=C(N)N1CCNc2ccccc2C1`, the T/C is 105 % of control (dose: 25.0 mg/kg/injection, schedule: Q04DX003 (ip), vehicle: saline with Tween-80); 99 % of control (dose: 50.0 mg/kg/injection, schedule: Q04DX003 (ip), vehicle: saline with Tween-80); 104 % of control under setting [4].
As to `CCC(=O)N/C(N)=N\C(N)=S`, the T/C is 101 % of control under setting [5], 96 % of control under setting [6] and 104 % of control under setting [7].
As for `CC(C)N1C(=O)C=C(c2ccc([N+](=O)[O-])cc2)C1=O`, the T/C by setting is: under setting [8], 105 % of control; under setting [9], 105 % of control; under setting [10], 106 % of control.
For the compound `CC(=O)O.CC(=O)O.[Co+2].[NH-]C(CCC(N)=O)C(=O)O.[NH-]C(CCC(N)=O)C(=O)O` (stereo not given), the T/C under setting [10] was 98 % of control.
Regarding `O=C(O)CCCNS(=O)(=O)c1ccc(S(=O)(=O)NCCCC(=O)O)cc1`, the T/C by setting is: under setting [5], 99 % of control; under setting [6], 103 % of control; under setting [7], 103 % of control.
In the case of `CC(O)C(NC(=O)OC(C)(C)C)C(=O)ON1C(=O)CCC1=O` (stereo not given), the T/C by setting is: under setting [10], 101 % of control; under setting [11], 101 % of control; (dose: 200.0 mg/kg/injection, schedule: Q01DX009 (ip), vehicle: saline with Tween-80) 101 % of control.
In the case of `Nc1nc2ncc([N+](=O)[O-])cc2c(=O)[nH]1`, the T/C under setting [12] was 102 % of control and the T/C under setting [13] is 100 % of control.
As for `CC1CC2=C(C(=O)c3ccccc3C2=O)C(C)O1` (stereo not given), the T/C under setting [14] is 106 % of control, the T/C under setting [15] was 92 % of control and the T/C under setting [16] is 96 % of control.
Turning to `CC(=O)NC(N)=NC#N`, the T/C by setting is: (dose: 50.0 mg/kg/injection, schedule: Q01DX001 (ip), vehicle: saline) 98 % of control; (dose: 100.0 mg/kg/injection, schedule: Q01DX001 (ip), vehicle: saline) 100 % of control; (dose: 200.0 mg/kg/injection, schedule: Q01DX001 (ip), vehicle: saline) 96 % of control; (dose: 400.0 mg/kg/injection, schedule: Q01DX001 (ip), vehicle: saline) 103 % of control.
Take `O=c1c2ccccc2oc2c(Br)c3c(c(O)c12)CCCC3`: the T/C under setting [5] is 103 % of control, the T/C under setting [6] is 87 % of control and the T/C under setting [7] was 96 % of control.
`CCC1C(OC)=CC(CC)(CO)C=C1OC` (stereo not given): the T/C under setting [12] is 95 % of control, the T/C under setting [13] was 95 % of control and the T/C under setting [17] is 100 % of control.
As to `C=CCCCn1nnc2ccccc21`, the T/C is 102 % of control under setting [4], 94 % of control under setting [18] and 86 % of control under setting [19].
In the case of `CCOC(=O)C1(Br)CC2(C1)CC(Br)(C(=O)OCC)C2` (stereo not given), the T/C by setting is: (dose: 100.0 mg/kg/injection, schedule: Q04DX002 (ip), vehicle: saline with Tween-80) 101 % of control; (dose: 200.0 mg/kg/injection, schedule: Q04DX002 (ip), vehicle: saline with Tween-80) 103 % of control; (dose: 400.0 mg/kg/injection, schedule: Q04DX002 (ip), vehicle: saline with Tween-80) 100 % of control.
As to `COc1ccccc1NC(=O)Cc1nc(=O)[nH]c(=O)[nH]1`, the T/C runs as follows: (dose: 12.5 mg/kg/injection, schedule: Q01DX009 (ip), vehicle: Klucel (hydroxypropylcellulose) (HPC)) 100 % of control; (dose: 25.0 mg/kg/injection, schedule: Q01DX009 (ip), vehicle: Klucel (hydroxypropylcellulose) (HPC)) 90 % of control; under setting [20], 101 % of control; under setting [21], 102 % of control; under setting [22], 96 % of control.
For `NS(=O)(=O)Cc1noc2ccc(F)cc12`, the T/C under setting [12] was 93 % of control, the T/C under setting [13] is 104 % of control and the T/C under setting [17] was 103 % of control.
Turning to `CCOC(=O)c1cccc2c([N+](=O)[O-])c([N+](=O)[O-])cc(C(=O)OCC)c12`, the T/C is, setting by setting: under setting [23], 99 % of control; under setting [24], 102 % of control; under setting [25], 99 % of control.
For the compound `Cn1c(=O)c2c(nc3n2CC(CF)O3)n(C)c1=O` (stereo not given), the T/C is, setting by setting: under setting [20], 104 % of control; under setting [21], 104 % of control; under setting [22], 99 % of control.
For `c1cc2c3c(c1)c1cc4c(cc1c[n+]3CCC2)OCO4`, the T/C (dose: 3.13 mg/kg/injection, schedule: Q01DX009 (ip), vehicle: water) was 110 % of control; the T/C (dose: 25.0 mg/kg/injection, schedule: Q01DX009 (ip), vehicle: water) was 119 % of control and 120 % of control.
Turning to `C1CC1C(=NN=C(C1CC1)C1CC1)C1CC1`, the T/C is, setting by setting: (dose: 6.25 mg/kg/injection, schedule: Q01DX009 (ip), vehicle: saline with Tween-80) 102 % of control; under setting [8], 101 % of control; under setting [9], 96 % of control.
`COc1ccc(NC(=O)C(c2ccccc2)c2ccccc2)cc1`: the T/C runs as follows: under setting [4], 90 % of control; under setting [18], 95 % of control; under setting [19], 100 % of control.
For the compound `COCCNCCN1CCN(CCCN2c3ccccc3Sc3ccc(C(F)(F)F)cc32)CC1`, the T/C is 104 % of control (dose: 1.56 mg/kg/injection, schedule: Q01DX009 (ip), vehicle: saline); 100 % of control (dose: 3.12 mg/kg/injection, schedule: Q01DX009 (ip), vehicle: saline); 107 % of control (dose: 6.25 mg/kg/injection, schedule: Q01DX009 (ip), vehicle: saline).
`COC(=O)C1CC(C)C1(OC)OC` (stereo not given): the T/C is, setting by setting: under setting [14], 106 % of control; under setting [15], 107 % of control; under setting [16], 101 % of control.
With `CC[Si](C#CCOc1ccccc1C1OCCO1)(CC)CC`, the T/C under setting [1] was 105 % of control, the T/C under setting [2] is 101 % of control and the T/C under setting [3] is 99 % of control.
Take `COc1cc(OC)cc(-c2n[se]c(-c3cc(OC)cc(OC)c3)n2)c1`: the T/C is 87 % of control (dose: 1.56 mg/kg/injection, schedule: Q01DX009 (ip), vehicle: saline with Tween-80) and 89 % of control under setting [10].
In the case of `Nc1nc(SCC(=O)O)[nH]c(=O)c1NS(=O)(=O)c1cccc([N+](=O)[O-])c1`, the T/C was 96 % of control (dose: 60.0 mg/kg/injection, schedule: Q01DX005 (ip), vehicle: Klucel (hydroxypropylcellulose) (HPC)); 93 % of control (dose: 120.0 mg/kg/injection, schedule: Q01DX005 (ip), vehicle: Klucel (hydroxypropylcellulose) (HPC)); 93 % of control (dose: 240.0 mg/kg/injection, schedule: Q01DX005 (ip), vehicle: Klucel (hydroxypropylcellulose) (HPC)).
With `CCN(CC)C(=O)/C(C)=C1/c2ccccc2S(=O)(=O)N1C`, the T/C is, setting by setting: (dose: 100.0 mg/kg/injection, schedule: Q04DX003 (ip), vehicle: Klucel (hydroxypropylcellulose) (HPC)) 109 % of control; (dose: 200.0 mg/kg/injection, schedule: Q04DX003 (ip), vehicle: Klucel (hydroxypropylcellulose) (HPC)) 94 % of control; (dose: 400.0 mg/kg/injection, schedule: Q04DX003 (ip), vehicle: Klucel (hydroxypropylcellulose) (HPC)) 98 % of control.
On to `O=S1(=O)CC(Sc2ccccc2)C1`, for which the T/C under setting [23] was 102 % of control, the T/C under setting [24] is 96 % of control and the T/C under setting [25] was 109 % of control.
Regarding `O=P(=O)OP(=O)=O.[O]=[W](=[O])=[O]`, the T/C was 100 % of control under setting [9], 100 % of control under setting [10] and 95 % of control under setting [11].

These data come from PubChem BioAssay AID330 (DTP/NCI, 2004).
